Measurements taken from patent US7223796B2, “Acyl-4-carboxyphenylurea derivatives, processes for preparing them and their use” (Sanofi-aventis Deutschland GmbH, priority 2002, dated 2007).

How the values were obtained:
[1] = target: T1, Human glycogen phosphorylase a (Homo sapiens, UniProt P06737); assay: Glycogen phosphorylase a activity test; format: biochemical; details: read-out: % inhibition at 10 μM; 10 μM test substance; GPa measured in reverse direction (glycogen synthesis from glucose 1-phosphate, phosphate release)
T1 sequence (P06737 2-847 limits assumed): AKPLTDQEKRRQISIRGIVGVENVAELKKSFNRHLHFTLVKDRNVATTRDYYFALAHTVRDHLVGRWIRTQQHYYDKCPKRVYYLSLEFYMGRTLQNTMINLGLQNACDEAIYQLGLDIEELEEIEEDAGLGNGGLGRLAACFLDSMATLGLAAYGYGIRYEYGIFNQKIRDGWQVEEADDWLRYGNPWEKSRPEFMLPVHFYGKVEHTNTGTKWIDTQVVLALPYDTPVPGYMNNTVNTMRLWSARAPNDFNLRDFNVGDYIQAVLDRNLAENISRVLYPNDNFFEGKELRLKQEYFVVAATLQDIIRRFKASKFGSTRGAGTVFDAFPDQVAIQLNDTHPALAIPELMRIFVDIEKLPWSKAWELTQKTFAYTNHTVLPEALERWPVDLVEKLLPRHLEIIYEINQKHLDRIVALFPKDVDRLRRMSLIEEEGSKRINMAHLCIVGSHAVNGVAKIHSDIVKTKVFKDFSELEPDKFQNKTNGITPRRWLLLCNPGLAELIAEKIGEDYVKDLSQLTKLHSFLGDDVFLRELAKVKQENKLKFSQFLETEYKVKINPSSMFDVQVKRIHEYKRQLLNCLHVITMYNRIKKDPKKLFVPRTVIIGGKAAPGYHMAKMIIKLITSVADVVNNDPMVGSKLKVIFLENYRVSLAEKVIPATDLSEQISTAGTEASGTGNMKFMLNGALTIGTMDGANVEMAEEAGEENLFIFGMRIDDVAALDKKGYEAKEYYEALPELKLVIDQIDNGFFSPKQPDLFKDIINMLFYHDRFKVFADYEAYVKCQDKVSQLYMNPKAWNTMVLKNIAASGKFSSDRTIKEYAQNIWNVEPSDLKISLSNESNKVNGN
Procedure: Glycogen Phosphorylase a Activity Test
All the reactions were carried out as duplicate determinations in 96-well microtiter plates (Half Area Plates, Costar No. 3696), with the change in absorption due to the formation of the reaction product being measured, at the wavelength specified below, in a Multiscan Ascent Elisa Reader (Lab Systems, Finland). In order to measure the enzymic activity of GPa in the reverse direction, the conversion of glucose 1-phosphate into glycogen and inorganic phosphate was measured in accordance with the general method of Engers et al. (Engers H D, Shechosky S, Madsen N B, Can J Biochem 1970 July;48(7): 746–754) but with the following modifications: Human glycogen phosphorylase a (for example containing 0.76 mg of protein/ml (Aventis Pharma Deutschland GmbH), dissolved in buffer solution E (25 mM β-glycerophosphate, pH 7.0, 1 mM EDTA and 1 mM dithiothreitol), was diluted with buffer T (50 mM Hepes, pH 7.0, 100 mM KCl, 2.5 mM EDTA, 2.5 mM MgCl2.6H2O), and addition of 5 mg of glycogen/ml, to a concentration of 10 μg of protein/ml. […] The basal value of the activity of the glycogen phosphorylase a in the absence of test substance was determined by adding 10 μl of buffer solution T (0.1% DMSO). […] After 60 minutes of incubation at 45° C., the absorption was measured at 820 nm. […]

O=C(NC(=O)c1cc(F)c(F)cc1Cl)Nc1ccc(C(=O)O)cc1OC(F)(F)F [Example 48, 4-[3-(2-Chloro-4,5-difluorobenzoyl)ureido]-3-trifluoromethoxybenzoic acid]
inhibition at 10 µM [1]: 99% | melting point: 236 °C
